Article PMC6213633, “Induction of ATP Release, PPIX Transport, and Cholesterol Uptake by Human Red Blood Cells Using a New Family of TSPO Ligands” (International Journal of Molecular Sciences, 2018)
Like-named read-outs stand apart in the source and are kept apart here.

How the values were obtained:
[1] = Hemolysis induced by TSPO ligands (Hb release, absorption at 405 nm); type: cell-based; conditions: human, Hb released, mean ± SEM, N = 4, read-out: Hemolysis induced by TSPO ligands treatment
Method: Hemolysis leads to hemoglobin (Hb) release into the extracellular milieu, where the Hb content can be quantified by monitoring light absorption, at 405 nm. Using this procedure, we previously observed that the amount of Hb was proportional to the amount of lysed RBCs. The Hb content of the samples was determined as described above. Then, the amount of lytic ATP contributing to [ATPe] was estimated from the total amount of hemolysis cells (calculated as described above) and the intracellular ATP content of the RBCs, which under the experimental conditions was 148 pmol ATP per 10^6 RBCs, as previously reported by our group.

[2] = tested on: healthy and P. falciparum-infected RBCs; experiment: ZnPPIX uptake in healthy and infected RBCs (flow cytometry); type: cell-based, human; conditions: 20 µM ZnPPIX, 50 µM ligand
Method: Figure 2 ZnPPIX uptake in healthy and infected RBCs induced by TSPO ligands. Healthy RBC (A) and infected RBC (B) at 2 to 5% parasitemia were incubated in the presence of 20 µM ZnPPIX and 50 µM TSPO ligands, and the uptake of ZnPPIX was assessed at different time points by flow cytometry. MFI values were normalized to background levels for the control and the ligand-treated conditions. Data are presented as the mean ± SEM; N = 7. Statistical analyses were performed for each ligand and the control condition. Differences were considered significant when * p < 0.05; ** p < 0.01; *** p < 0.001.
P. falciparum cultures were incubated at 2–5% parasitemia (synchronized cultures, ring and trophozoite stages) in 200 µL of RPMI 10% Albumax containing 20 µM ZnPPIX. […] Cultures were kept at 37 °C, in the dark, for 3 to 18 h and further analyzed by FACS.
(§1) Fluorescence measurements in all samples of the P. falciparum’s viability, ZnPPIX uptake, cholesterol uptake, and ROS accumulation assays, were performed with a FACSCanto (BD Biosciences, Rungis, France) and further analyzed with Flowjo-3 software. […] ZnPPIX (Ex.: 488 nm, Em.: 585/42 nm), TopFluor Cholesterol (Ex.: 495 nm, Em.: 507 nm) and DCFDA (Ex.: 488 nm, Em.: 530/30 nm) levels were measured in both the infected and non-infected RBC populations, results were normalized to the corresponding solvent for each ligand.

[3] = tested on: P. falciparum-infected RBCs; experiment: Sorbitol-induced hemolysis in infected RBCs; type: cell-based, human; conditions: 50 µM ligand
Method: Figure 4 Sorbitol-induced hemolysis is modulated by the TSPO ligands in infected red blood cells. Infected RBCs at 2 to 5 % parasitemia were washed three times in a culture medium, without serum, and resuspended at 50% hematocrit in a media containing 10 μM (A) or 50 μM (B) TSPO ligands. Hemolysis was quantified at several time-points, by absorption at 540 nm wavelength. Data are presented as mean ± SEM; N = 4. Differences between each ligand and control condition (vehicle) were considered significant when p < 0.01.
Sorbitol hemolysis assays were carried as previously described using hemoglobin release to estimate lysis time. Monoexponential functions were fitted to the data from the sorbitol-induced hemolysis (%) (Figure 4), at different times of exposure to the ligands. Half time values (t1/2) for hemolysis were then calculated as t1/2= ln (2)/k, where k is the rate coefficient of the exponential curve.

[4] = tested on: healthy and P. falciparum-infected RBCs; experiment: TopFluor Cholesterol uptake by RBCs (flow cytometry); type: cell-based, human; conditions: 50 µM ligand; for effect on cholesterol uptake: healthy and infected RBCs
Method: Figure 5 Cholesterol uptake induced by TSPO ligands. Healthy (A) or infected red blood cells, at 2 to 5% parasitemia (B) were incubated in the presence of TopFluor Cholesterol and 50 µM of TSPO ligands. Cholesterol uptake was assessed at different time points by flow cytometry. MFI values were normalized to vehicle treated cells. Data are presented as mean ± SEM; N = 4. Differences between each ligand and control condition (vehicle) were considered significant when * p < 0.05.
Cholesterol uptake was measured using TopFluor Cholesterol and 50 µM of TSPO ligands. Cholesterol uptake was assessed at different time points by flow cytometry. Mean Fluorescent Intensity (MFI) values were normalized to vehicle treated cells.
Fluorescence measurements in all samples of the P. falciparum’s viability, ZnPPIX uptake, cholesterol uptake, and ROS accumulation assays, were performed with a FACSCanto (BD Biosciences, Rungis, France) and further analyzed with Flowjo-3 software. Infected-RBCs were distinguished from non-infected ones contained in the same culture by TOPRO-3 signaling (1/2, 500), with the negative level established with the same non-infected RBCs used for parasite culture. ZnPPIX (Ex.: 488 nm, Em.: 585/42 nm), TopFluor Cholesterol (Ex.: 495 nm, Em.: 507 nm) and DCFDA (Ex.: 488 nm, Em.: 530/30 nm) levels were measured in both the infected and non-infected RBC populations, results were normalized to the corresponding solvent for each ligand.

[5] = tested on: human red blood cells; experiment: ATP release from RBCs (luciferase luminometry); type: cell-based; conditions: for induction of ATP release (comparison between ligands): 10 or 30 µM ligand, 37 °C, 10% hematocrit; for ligand-induced ATP release in presence of VDAC blocker Bcl-XLBH4: Bcl-XLBH4 10 µM; for ligand-induced ATP release in presence of pannexin-1 inhibitors: carbonexolone 10 µM or probenecid 10 µM
Method: Figure 6 TSPO ligand-induced ATP release. ATP release from human red blood cells was measured at 37 °C, 10% Hematocrit, as described in material and methods. Values are the ratio between extracellular ATP (ATPe) levels after and before the addition of TSPO ligands. […] Results are expressed as means ± SEM and considered different from basal (vehicle, unstimulated) values when * p < 0.05; ** p < 0.01 or from those incubated in the presence of Bcl-XLBH4 when ^# p < 0.05 and ^## p < 0.01; N = 7.
Extracellular ATP (ATPe) concentration was measured by quantitative luminometry using firefly luciferase, which catalyzes the oxidation of luciferin in the presence of ATP to produce light as previously described. The ATPe concentration was determined at discrete times (offline). Changes in [ATPe] over time were used to estimate ATP release from RBCs.
10 µL of RBCs at 10% hematocrit were incubated for 10 min, at 37 °C, in the presence of the ligand, or of an equal vehicle volume, with 30 µL of MKB medium. At discrete times, samples were centrifuged at 450× g for 3 min, at RT. Paired samples were taken to assess ATPe and hemolysis. The supernatants were stored at −20 °C, prior to the analysis. Then, 4.5 µL of the supernatant samples were added to 45 µL of the luminometry mix (MKB medium containing 0.01 µM luciferase, 0.2 mM luciferin, and 0.1 mg/mL of Coenzyme A) and placed in the assay chamber of the luminometer to determine the light intensity. At the end of the incubations, the time course of light emission was transformed into the ATPe concentration versus time using a calibration curve, with ATP stock solutions ranging from 1 to 50 µM. The results were expressed as ΔATPe (i.e., the ratio of [ATPe] before and after the addition of a given stimulus).
The increase in [ATPe] due to regulated ATP release was calculated by taking the experimentally-measured [ATPe] and subtracting the estimated [ATPe] due to hemolysis. Except where otherwise stated, the results of ATP release experiments reflected the ATP release from non-lytic origin.

[6] = tested on: human red blood cells; parameters: method as in PMID 30061676; conditions: cited from earlier work
[7] = molecular target: T1, TSPO2-expressing RBC membranes (Homo sapiens, UniProt Q5TGU0); experiment: (3H) PK 11195 displacement binding on RBCs; parameters: endogenous in cells; host or cells: human red blood cells purified from fresh blood of healthy volunteers
T1 sequence (Q5TGU0 1-170): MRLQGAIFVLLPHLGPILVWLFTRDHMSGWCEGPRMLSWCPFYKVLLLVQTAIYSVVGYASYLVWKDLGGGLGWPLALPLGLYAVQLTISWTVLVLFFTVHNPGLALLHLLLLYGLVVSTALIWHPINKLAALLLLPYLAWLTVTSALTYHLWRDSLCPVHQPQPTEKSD
Method: The affinity of the ligands for the RBC membranes was assessed by typical displacement experiments. RBCs were exposed to 10 nM (^3H) PK 11195 and increasing concentrations of non-radiolabeled TSPO ligands.
RBCs were washed twice in phosphate buffer saline (PBS) (pH 7.4). Samples were incubated in a final incubation volume of 0.3 mL, in the presence of (^3H) PK 11195 (Perkin Elmer, Courtaboeuf, France; 83.5 Ci/mmol) and increasing concentrations of unlabeled TSPO ligands, at room temperature (RT). After 30 min incubation, assays were stopped by filtration through Whatman GF/C filters. Radioactivity trapped on the filters was determined by liquid scintillation counting (Tri-Carb 2800TR, Perkin-Elmer, Courtaboeuf, France).

[8] = tested on: TSPO1-enriched rat heart microsomes; parameters: method as in doi:10.1002/slct.201701565; conditions: cited from earlier work
[9] = tested on: P. falciparum strain FCR3; experiment: P. falciparum growth inhibition (flow cytometry of parasitemia); type: cell-based, Plasmodium falciparum; conditions: 10 and 50 µM
Method: Figure 1 TSPO ligands inhibited the P. falciparum growth. Infected RBCs were diluted to 1% parasitemia, and maintained at 1–5%, by dilution, for […]. Percentages of growth-inhibition were obtained, after two parasite cycles, by the flow cytometry analysis of parasitemia, and normalized to the control condition (solvent-treated cells). Data are presented as the mean ± SEM; N = 4. Differences between the control condition and the treatment were considered significant at ** p < 0.01; *** p < 001.
P. falciparum strain FCR3 culture was performed in RPMI 1640 medium containing 10% Albumax, at 5% hematocrit, in a 5% O2, 3% CO2 atmosphere. […] Parasitemia was determined after 48 h and 96 h (after one or two complete parasite’s cycles, respectively) by flow cytometry (FACS), as previously described.
as §1

[10] = displacement of 10 nM (3H) PK 11195, mean ± SEM, N = 3, read-out: IC50, TSPO ligands' affinity for RBC membranes

| SMILES | hemolysis ([1]; red blood cells (RBCs)) | ZnPPIX uptake increase (effect in words) [2] | t1/2 of sorbitol-induced hemolysis relative to control samples [3] | effect on cholesterol uptake [4] | induction of ATP release (comparison between ligands) [5] | ligand-induced ATP release in presence of VDAC blocker Bcl-XLBH4 [5] | ligand-induced ATP release in presence of pannexin-1 inhibitors [5] | non-lytic ATP efflux from RBCs [6] | IC50 [7, 10] | hemolysis [1] | other results |
| --- | --- | --- | --- | --- | --- | --- | --- | --- | --- | --- | --- |
| CCN(CC)C(=O)Cn1c(=O)n2cc(-c3ccco3)nc2c2ccccc21 [NCS1018, N,N-Diethyl-2-(2-(furan-2-yl)-5-oxomidazo[1-c]quinazolin-6(5H)-yl)acetamide] | 0.72 ± 0.06% | no significant effect | eight-fold higher | did not alter cholesterol uptake | most efficient in inducing ATP release | significantly inhibited | not affected | triggered non-lytic ATP efflux | 590 ± 70 nM | – | – |
| CCCN(CCC)C(=O)Cn1c(=O)n2cc(-c3ccccc3)nc2c2ccccc21 [NCS1026, N,N-dipropyl-2-(5-oxo-2-phenylimidazo[1-c]quinazolin-6(5H)-yl)acetamide] | 0.52 ± 0.06% | no significant effect | three-fold higher | – | – | – | – | – | 280 ± 60 nM | – | inhibition of cholesterol uptake ([4]; 1 h of incubation): 40%; inhibition of cholesterol uptake ([4]; 5 h of incubation): 20%; IC50 [8]: 10 nM |
| CCC(C)N(C)C(=O)c1cc2ccccc2c(-c2ccccc2Cl)n1 (stereo not drawn) [PK 11195, reference compound] | – | – | three-fold higher | – | – | – | – | – | – | 0.6 ± 0.06% | – |
| CN1C(=O)CN=C(c2ccc(Cl)cc2)c2cc(Cl)ccc21 [Ro5-4864, reference compound] | – | – | eight-fold higher | did not alter cholesterol uptake | a bit lower | significantly inhibited | not affected | triggered non-lytic ATP efflux | – | 0.68 ± 0.16% | IC50 [7]: 1500 ± 600 nM |
| CN(C)C(=O)Cc1nn(-c2ccccc2)c(=O)c2c1c1ccc(Cl)cc1n2C [SSR-180,575, reference compound] | 0.7 ± 0.08% | – | – | did not alter cholesterol uptake | – | – | – | – | – | – | anti-plasmodium activity (comparison between ligands) [9]: highest anti-plasmodium activity trend |
| CC(C)CCC[C@@H](C)[C@H]1CC[C@H]2[C@@H]3CCC4=CC(=NO)CC[C@]4(C)[C@H]3CC[C@]12C [TRO19622] | – | – | – | – | – | – | – | triggered non-lytic ATP efflux | – | – | – |
